Experimental data taken from patent US9376663B2, “GPR15-mediated homing and uses thereof” (New York University, priority 2013, dated 2016).

Key:
[1] = biological target: T1, inducible caspase 9 (iCasp9) (Homo sapiens, UniProt P55211+P62942, F37V); settings: patients wherein GVHD developed; cited from earlier work
T1 construct: human caspase 9 (fusion partner in the same polypeptide)

[2] = system: GPR15 expression; test: In vitro stimulation of T cells to examine GFP (GPR15 reporter) induction; type: cell-based, mouse; settings: various concentration of retinoic acid with IL-2 only, 3 days, CD4+ Tnaive and Tregs from Gpr15gfp/+ Foxp3ires-mrfp mice
Description: All T cell cultures were done in RPMI-10. CD4^+ Tnaive (CD62L^hiCD44^loCD25^−mRFP^− GFP^−), Tregs with naive phenotype (CD62L^hiCD44^loCD25^+mRFP^+ GFP^−), Tmemory (CD62L^loCD44^hiCD25^−mRFP^− GFP^−), and Tregs with memory phenotype (CD62L^loCD44^hiCD25^+mRFP^+ GFP^−) were sorted from Gpr15^gfp/+ Foxp3^ires-mrfp mice. Sorted cells were stimulated with 0.25 μg/ml αCD3ε (145-2c11, ATCC) and 1 μg/ml of αCD28 antibodies (37.51, eBiosciences) cross-linked by plate-bound α-hamster IgG in the presence of human IL-2 (100 U/ml) alone, or additionally with IL-21 (10 ng/ml, R&D systems) or IL-6 (20 ng/ml, Peprotech), or IL-27 (20 ng/ml, eBioscience) in the presence of varying concentrations of human TGF-β1 (αTGFβ blocking antibody [R&D systems], or 0, 0.5 ng/ml, or 5 ng/ml TGF-β1 [Peprotech]) for 3 days. The same conditions were used for retinoic acid (Sigma-Aldrich) treatment with IL-2 only.

[3] = system: homing of T cells to the large intestine lamina propria (LILP); test: Short-term competitive homing assay; type: in vivo, mouse; settings: GPR15+ cells treated before transfer, co-transfer with untreated control-transduced cells
Description: The coding region of mouse GPR15 was cloned into the MSCV-IRES-Thy1.1 retroviral construct (38). Retroviruses were generated by transient transfection of Phoenix cells. CD4^+ CD62L^highCD44^lowCD25^− Tnaive cells were sorted by FACS Aria IIu (BD Biosciences) and stimulated with 0.25 μg/ml of αCD3ε (145-2c11, ATCC) and 1 μg/ml of αCD28 (37.51, eBiosciences) antibodies cross-linked by plate-bound α-hamster IgG (MP Biochemical) in RPMI-10. At day 1 and day 2 after stimulation, cells were transduced with retrovirus (spinning at 850 g for 2 h with 4 μg/ml of polybrene). CD4^+ Tnaive cells from B6. SJL-Ptprc^aPep3^b/BoyJ (The Jackson Laboratory) were used for transduction of Gpr15 and CD4^+ Tnaive cells from C57BL/6 were used for transduction of empty vector. At day 3, cells were washed and plated again only with 100 U/ml of IL-2. At day 5, live cells were harvested by lymphocyte-M (Cedarlane). The congenic cells were mixed at a 1:1 ratio and 20-30 million mixed cells in total were transferred intravenously into the recipient mice (C57BL/6). Migration of donor cells into each organ was determined at 10 h after transfer (unless specified) by flow cytometry analysis. All donor cells expressed THY1.1 and GPR15-expressing cells and control cells expressed CD45.1 and CD45.2, respectively. […]

T1 sequence (P62942+P55211 fused P62942:F37V): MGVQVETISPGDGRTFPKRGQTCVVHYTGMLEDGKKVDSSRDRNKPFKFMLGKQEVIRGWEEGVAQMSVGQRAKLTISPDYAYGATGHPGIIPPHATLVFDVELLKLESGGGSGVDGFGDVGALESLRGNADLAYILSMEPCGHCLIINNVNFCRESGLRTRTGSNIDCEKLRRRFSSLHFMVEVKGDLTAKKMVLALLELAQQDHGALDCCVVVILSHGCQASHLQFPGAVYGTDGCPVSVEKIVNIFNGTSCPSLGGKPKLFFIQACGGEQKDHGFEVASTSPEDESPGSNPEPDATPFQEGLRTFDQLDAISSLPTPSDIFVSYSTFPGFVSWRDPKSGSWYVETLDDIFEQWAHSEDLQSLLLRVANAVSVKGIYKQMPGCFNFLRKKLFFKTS

CC[C@H](C(=O)N1CCCC[C@H]1C(=O)O[C@H](CCc1ccc(OC)c(OC)c1)c1cccc(OCC(=O)NCCNC(=O)COc2cccc([C@@H](CCc3ccc(OC)c(OC)c3)OC(=O)[C@@H]3CCCCN3C(=O)[C@@H](CC)c3cc(OC)c(OC)c(OC)c3)c2)c1)c1cc(OC)c(OC)c(OC)c1 [AP1903]
elimination of the transplanted genetically modified T cells [1]: greater than 90%

CC1=C(/C=C/C(C)=C/C=C/C(C)=C/C(=O)O)C(C)(C)CCC1 [Retinoic acid]
GPR15 induction (GFP reporter) [2]: does not induce GPR15 expression | GPR15 induction (GFP reporter) ([2]; listed as RA): not induced

pertussis toxin
enrichment of Gpr15-transduced cells in the LILP after treatment of the cells before transfer [3]: no longer enriched in the LILP
